Values joined by “and” are separate entries in the source; they are usually repeats but may differ in a detail not shown here. Equal entries are not always repeated.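 Cells were grown in 96-well plates and exposed to each compound for 48 hours at five concentrations; endpoints were interpolated linearly between bracketing concentrations, or set to the highest concentration if not reached. GI50 marks 50% less growth. TGI denotes the concentration required for complete inhibition of growth.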 Active and inactive are the calls of the source. Rule as the data show it: active = GI50 below about 0.43 µM; inactive = the rest.
Key:
Assay in all cases: inhibition of tumour cell growth, NCI panel, 48 h
[1] = system: DLD-1 colon
[2] = system: DMS 114 small cell lung
[3] = system: HOP-18 NSCLC
[4] = system: LXFL 529 NSCLC
[5] = system: M19-MEL melanoma
[6] = system: XF 498 CNS
[7] = system: DMS 273 small cell lung
[8] = system: SNB-78 CNS
[9] = system: MDA-N

| Structure (SMILES) | TGI [1] | TGI [2] | TGI [3] | TGI [4] | TGI [5] | TGI [6] | TGI [7] | TGI [8] | TGI [9] | other results |
| --- | --- | --- | --- | --- | --- | --- | --- | --- | --- | --- |
| COC(=O)NC(=Nc1ccc(Oc2ccccc2)cc1NC=O)NC(=O)OC | > 100 µM | 0.864 µM | > 100 µM | > 100 µM | > 100 µM | 6.75 µM | – | – | – | – |
| COc1ccc2c(c1)[n+]([O-])c(-c1ccc(Br)cc1)c(N)[n+]2[O-] | > 100 µM | 57.9 µM | > 100 µM | – | > 100 µM | > 100 µM | 68.9 µM | > 100 µM | – | – |
| C[C@]12CCC[C@H](O)[C@H]1C[C@H](CO)CC2 | > 100 µM | – | > 100 µM | > 100 µM | > 100 µM | > 100 µM | > 100 µM | – | – | – |
| C/C=C(/CCC1NCCC2c3ccccc3NC12)[Si](C)(C)C (stereo unspecified) | 17.1 µM | 14.3 µM | 26.7 µM | 13 µM | 24.8 µM | 12.1 µM | 21.7 µM | 26.2 µM | – | – |
| Cc1cc(Cl)ccc1NC(=O)CCCC(=O)C1CCC/C1=N\NC(=O)CC#N (stereo unspecified) | > 100 µM | > 100 µM | 97.9 µM | > 100 µM | > 100 µM | > 100 µM | > 100 µM | > 100 µM | – | – |
| CCOC(=O)C1=C(C)N(Cc2ccccc2)C(=O)C1CC#N (stereo unspecified) | > 100 µM | > 100 µM | > 100 µM | > 100 µM | > 100 µM | – | > 100 µM | > 100 µM | – | – |
| O=S(=O)(c1ccc(Br)cc1)N1CCN(S(=O)(=O)c2ccc(Br)cc2)CC1 | – | – | – | – | – | – | – | – | > 100 µM | – |
| CSCC[C@H](NC(=O)[C@H](CC(C)C)NC(=O)[C@@H](Cc1ccccc1)NC(=O)CNC(=O)[C@@H](NC(=O)[C@H](C)NC(=O)[C@H](Cc1c[nH]c2ccccc12)NC(=O)[C@H](CCC(N)=O)NC(=O)[C@H](N)CC(N)=O)C(C)C)C(N)=O | – | – | – | – | – | – | – | – | > 12.5 µM | – |
| Cn1c2ccccc2c(=O)c2c(O)cc3c(c21)CC(C1(C)CO1)O3 (stereo unspecified) | 26.1 µM | 5.11 µM | > 93.2 µM | 1.5 µM | – | 4.73 µM | 49.2 µM | – | 2.73 µM | – |
| Cc1cc2nc3ccc(=[N+](C)C)cc-3sc2cc1N | 23.5 µM | 2.79 µM | 36.6 µM | 18.1 µM | 0.354 µM | – | 12.2 µM | 54.9 µM | 2.35 µM | – |
| C=C1COC(O)(C2OCOC(C3CC(=O)NC(=O)C3)C2O)C1C (stereo unspecified) | 0.0556 µM and 0.0675 µM | 0.0271 µM and 0.0437 µM | 0.035 µM and 0.0686 µM | 0.0897 µM and 0.101 µM | 0.00849 µM and 0.0215 µM | – | 0.0283 µM and 0.0417 µM | 0.0971 µM and 0.0358 µM | 0.0289 µM | GI50 [1]: 0.0109 µM; GI50 [3]: 0.0112 µM |
| NC(=O)c1ncn(CCN2CCN(C(=O)NCCCCCCNC(=O)N3CCN(CCn4cnc(C(N)=O)c4N)CC3)CC2)c1N | > 100 µM | – | > 100 µM | > 100 µM | – | > 100 µM | > 100 µM | > 100 µM | – | – |
| O=C(/C=C/c1ccccc1Cl)c1cccc2ccccc12 | 25.1 µM | 15.2 µM | 29.7 µM | 11.9 µM | 23.5 µM | – | 31.6 µM | 44.8 µM | – | – |
| CCC(CCC(C)C1CCC2C3CC=C4CC(OC5OC(CO)C(O)C(O)C5O)CCC4(C)C3CCC12C)C(C)C (stereo unspecified) | – | – | – | – | – | – | – | – | > 100 µM | – |
| CC(=O)[CH-]C(=O)c1ccccc1.CC(=O)[CH-]C(=O)c1ccccc1.CC[C@H](/C=C/C(C)[C@H]1CCC2[C@@H]3CC=C4C[C@@H]([O-])CC[C@]4(C)C3CC[C@@]21C)C(C)C.CC[O-].[Ti+4] (stereo partly specified) | > 100 µM | – | – | > 100 µM | > 100 µM | – | > 100 µM | – | – | GI50 [1]: > 100 µM; GI50 [7]: > 100 µM; GI50 [4]: > 100 µM; GI50 [5]: > 100 µM |
| CCOc1ccc2c(C)cc(=O)oc2c1 | – | – | – | – | – | – | – | – | > 100 µM | – |
| COC(C(=O)C(O)C(C)O)C1Cc2cc3cc(OC4CC(OC5CC(O)C(O)C(C)O5)C(O)C(C)O4)c(C)c(O)c3c(O)c2C(=O)C1OC1CC(OC2CC(O)C(OC3CC(C)(O)C(O)C(C)O3)C(C)O2)C(O)C(C)O1 (stereo unspecified) | 150 ng/mL | 0.479 ng/mL | – | – | 0.31 ng/mL | – | 2.4 ng/mL | 21.4 ng/mL | 128 ng/mL and 328 ng/mL | GI50 [1]: 0.0828 ng/mL; GI50 [2]: 0.0556 ng/mL; GI50 [7]: 0.0407 ng/mL; outcome [3]: inactive; GI50 [5]: 0.0253 ng/mL; GI50 [9]: 13.9 ng/mL and 25.8 ng/mL; GI50 [8]: 0.0424 ng/mL; outcome [6]: inactive |
| Cc1cc(=O)n2c3c(c4c(cc13)c(CO)cc(=O)n4C)OC2 | > 100 µM | 47.5 µM | 62.6 µM | 34 µM | 46.4 µM | 32.4 µM | > 100 µM | > 100 µM | – | – |
| COC(=O)NN1C(C)=C(C(=O)OC)C2(C#N)C(C(=O)OC)=C(C)N(NC(=O)OC)C12N (stereo unspecified) | > 100 µM | > 100 µM | > 100 µM | > 100 µM | > 100 µM | > 100 µM | > 100 µM | > 100 µM | – | – |

| Structure (SMILES) | TGI [1] | TGI [2] | TGI [3] | TGI [4] | TGI [5] | TGI [6] | TGI [7] | TGI [8] | TGI [9] | other results |
| --- | --- | --- | --- | --- | --- | --- | --- | --- | --- | --- |
| Cc1ccc(NC(=O)CC/C(CC(=O)C(C)(C)C)=N/NC(=O)C[N+](C)(C)C)cc1C | > 100 µM | > 100 µM | > 100 µM | > 100 µM | > 100 µM | – | – | > 100 µM | – | – |
| c1ccc(CN2CCC3(CC2)SSC2(CCN(Cc4ccccc4)CC2)SS3)cc1 | – | – | – | – | – | – | – | – | > 100 µM | – |
| C=C(C)C1CC=C(C)CC1 (stereo unspecified) | > 100 µM and 1610 µM | > 100 µM and 1650 µM | > 100 µM | > 100 µM and 1550 µM | > 100 µM and 1580 µM | > 100 µM and 1720 µM | > 100 µM and 1720 µM | > 100 µM and 1960 µM | – | GI50 [1]: > 100 µM; GI50 [2]: > 100 µM; GI50 [7]: > 100 µM; GI50 [4]: > 100 µM; GI50 [5]: > 100 µM; GI50 [8]: > 100 µM; GI50 [6]: > 100 µM |
| CC1(C)CCCC(C)(C2CCC3(C)C2C(O)CC2C4(C)CCC(O)C(C)(C)C4C(O)CC23C)O1 (stereo unspecified) | – | – | – | – | – | – | – | – | 30.8 µM | – |
| COc1ccc2c(Cc3c4ccccc4cc4ccccc34)cncc2c1O | – | – | – | – | – | – | – | – | 4.55 µM | – |
| COC(=O)C1=Cc2cc(OC)c(OC)cc2[C@H](c2ccc(OC)c(OC)c2)C1C(=O)OC (stereo partly specified) | – | > 100 µM | – | > 100 µM | > 100 µM | > 100 µM | > 100 µM | > 100 µM | – | – |
| NC(=S)N/N=C/c1ccc(N)cn1 | – | – | – | – | – | – | – | – | > 10 µM | – |
| COc1cccc(NC(=O)C(C)(C)C)c1SSc1c(NC(=O)C(C)(C)C)cccc1OC | > 61.8 µM | – | > 100 µM | 29.9 µM | > 100 µM | 35.7 µM | > 100 µM | 51.2 µM | – | – |
| COC1=C(Br)C(O)C2(C=C1Br)CC(C(=O)NCCCCNC(=O)C1=NOC3(C=C(Br)C(OC)=C(Br)C3O)C1)=NO2 (stereo unspecified) | – | – | – | – | – | – | – | – | 39.7 µM | – |
| COc1cc2oc(-c3ccc(O)cc3O)c(CC=C(C)C)c(=O)c2c(O)c1/C=C/C(C)C | – | – | – | – | – | – | – | – | 8.34 µM | – |
| NC1=NN(c2ccccc2)C(=O)C1/C(=N\NC(=O)c1cc2ccccc2cc1O)C(=O)Nc1cccc(C(F)(F)F)c1 (stereo unspecified) | > 100 µM | 83 µM | > 100 µM | > 100 µM | > 100 µM | > 100 µM | – | > 100 µM | – | – |
| Cn1c(=O)c2ccc(-c3ccc(Br)cc3)nc2n(C)c1=O | > 100 µM | > 100 µM | > 100 µM | > 100 µM | > 100 µM | > 100 µM | > 100 µM | > 100 µM | – | – |
| N#Cc1cc([N+](=O)[O-])ccc1NC(=O)C(F)(F)F | > 100 µM | > 56.1 µM | > 100 µM | > 100 µM | > 100 µM | > 100 µM | > 100 µM | > 100 µM | – | – |
| CC(C)=CCC1=C(OCC(=O)O)C(=O)c2ccccc2C1=O | – | – | – | – | – | – | – | – | 34.8 µM | – |
| COC(=O)C[CH2][Ge]([CH3])([CH3])[S]c1ccccc1 | 42.9 µM | – | > 100 µM | 81.1 µM | > 100 µM | – | > 100 µM | > 100 µM | – | GI50 [1]: 20.3 µM; GI50 [7]: 42.6 µM; GI50 [3]: > 100 µM; GI50 [4]: 24 µM; GI50 [5]: 36.8 µM; GI50 [8]: 59.5 µM |
| CSc1nc2c(nc(N)n2C2OC(COC(C)=O)C(OC(C)=O)C(OC(C)=O)C2OC(C)=O)c(=O)n1C (stereo unspecified) | > 100 µM | > 100 µM | > 100 µM | > 100 µM | – | > 100 µM | – | > 100 µM | – | – |
| C[C@]12CC[C@H]3[C@@H](CCC4=CC(=O)CC[C@@]43C)[C@@H]1CC[C@@H]2C(=O)COS(=O)(=O)c1ccc(Br)cc1 | – | – | – | – | – | – | – | – | 33.8 µM | – |
| CC(=O)[CH-]C(=O)c1ccccc1.CC(=O)[CH-]C(=O)c1ccccc1.CC1(C)OCC(C2OC3OC(C)(C)OC3C2[O-])O1.CC1(C)OCC(C2OC3OC(C)(C)OC3C2[O-])O1.[Ti+4] (stereo unspecified) | 52.5 µM | – | – | 24 µM | > 100 µM | – | – | – | – | GI50 [1]: 18.5 µM; GI50 [4]: 11.5 µM; GI50 [5]: 4.91 µM |
